From article PMC6395927, “Rufomycin Targets ClpC1 Proteolysis in Mycobacterium tuberculosis and M. abscessus” (Antimicrobial Agents and Chemotherapy, 2019)
In brackets after ≈: the same amount, converted by molar mass. Entries after “also recorded” stand apart in the source; their conditions may differ. Like-named read-outs stand apart in the source and are kept apart here.

Key:
[1] = system: OVCAR 3 ovarian cancer cells; assay: Cytotoxicity against cancer cell lines (CellTiter 96); type: cell-based; conditions: Homo sapiens; OVCAR 3, 72 h
Description: (§1) Human melanoma cancer cells (MDA-MB-435), human breast cancer cells (MDA-MB-231), and human ovarian cancer cells (OVCAR3) were purchased from the American Type Culture Collection (Manassas, VA). Each cell line was propagated at 37°C in 5% CO2 in RPMI 1640 medium supplemented with FBS (10%), penicillin (100 U/ml), and streptomycin (100 μg/ml). Cells in log phase were harvested by trypsinization, followed by two washing cycles to remove all traces of enzyme. A total of 5,000 cells were seeded per well of a 96-well clear, flat-bottom plate (Microtest 96; Falcon) and incubated overnight (37°C in 5% CO2). Samples dissolved in DMSO were then diluted and added to the respective wells. The cells were incubated in the presence of test substance for 72 h at 37°C and evaluated for viability with a commercial absorbance assay (CellTiter 96 AQueous One Solution cell proliferation assay; Promega Corp., Madison, WI) that measured viable cells. IC50 values are expressed in micromolar values relative to the solvent (DMSO) control.

[2] = system: MDA-MB-435 melanoma cells; assay: as above; type: cell-based; conditions: Homo sapiens, MDA-MB-435, 72 h
Description: as §1

[3] = system: MDA-MB-231 breast cancer cells; assay: as above; type: cell-based; conditions: Homo sapiens, MDA-MB-231, 72 h
Description: as §1

[4] = system: Staphylococcus aureus (ATCC 29213); assay: MIC against nonmycobacteria (OD570); type: cell-based; conditions: ATCC29213, S. aureus
Text: (§2) Standard compounds used were ampicillin (AMP) and gentamicin (GEN). […] Amphotericin B (AmphB) and ketoconazole (KETO) were used as standard compounds.

[5] = system: Candida albicans (ATCC 10231); assay: MIC against nonmycobacteria (OD570); type: cell-based; conditions: ATCC10231, C. albicans
Text: as §2

[6] = system: Escherichia coli (ATCC 25922); assay: MIC against nonmycobacteria (OD570); type: cell-based; conditions: ATCC25922, E. coli
Text: as §2

[7] = system: M. abscessus (ATCC 19977); assay: microbe, parasite or virus in culture; type: cell-based, Mycobacterium abscessus; conditions: read-out: MIC
[8] = system: J774A.1 macrophage (ATCC TIB-67); assay: Cytotoxicity in mammalian cells (resazurin); type: cell-based, murine; conditions: Mus musculus, J774.A1; J774, 72 h
ClpC1/P1/P2 complex = ClpC1/P1/P2 complex (Mycobacterium tuberculosis, UniProt P9WPC9); type: biochemical, M. tuberculosis
ClpC1 = ClpC1 (Mycobacterium tuberculosis, UniProt P9WPC9); type: biochemical, M. tuberculosis
M. tuberculosis = assay: microbe, parasite or virus in culture; type: cell-based, Mycobacterium tuberculosis
M. bovis (ATCC 35734) = assay: microbe, parasite or virus in culture; type: cell-based; conditions: Mycobacterium tuberculosis variant bovis, ATCC35734
in vivo = assay: in vivo; set-up: species or system BALB/c mice; conditions: mice, single i.v. 5 mg/kg
Description: Healthy female BALB/c mice were administered a single dose (5 mg/kg) of RUFI intravenously (i.v.; tail vein). RUFI was formulated using 10% ethanol (EtOH), 40% 10% (2-hydroxypropyl)-β-cyclodextrin (HP-β-CD) solution, and 50% PEG 400. RUFI was first dissolved in 0.102 ml of EtOH, vortexed and sonicated until clear, and then diluted with 0.508 ml of PEG 400 with additional vortex treatment and sonication until clear. Finally, 0.406 ml of 10% HP-β-CD was added to the solution. Then 20 μl of this formulation was pipetted into a 10-ml volumetric flask, and methanol (MeOH) was added to a final concentration of 1 mg/ml. The accuracy of the formulation concentration was verified via high-performance liquid chromatography-tandem mass spectrometry (HPLC-MS/MS) (AB Sciex 6500+; SCIEX, Framingham, MA) by electrospray using multiple reaction monitoring (MRM; 1065.63/1047.70) in positive ion mode. LC was performed with a Kinetex EVO C18 column (50 mm by 3.00 mm [inside diameter], 2.6-μm particle size, 100-Å pore size) using a gradient of 0.1% formic acid (FA) in water–0.1% FA in acetonitrile (ACN) (25% ACN to 95% ACN in 1.5 min) at a flow rate of 0.8 ml/min.
Blood samples (10 μl) were collected via saphenous vein puncture at 5, 15, and 30 min and 1, 2, 4, 8, and 25 h. […] A standard curve was determined by using RUFI spiked into untreated mouse plasma.

[9] = system: M. abscessus in bone marrow-derived macrophages; assay: Intracellular survival assay in BMDMs; type: cell-based, Mycobacterium abscessus; conditions: 2 days, 5 and 10 μM
Description: Bone marrow-derived macrophages (BMDMs) were isolated from the femurs and tibias of C57BL/6 mice (5 to 6 weeks old) and differentiated by culturing for 4 days in DMEM containing 10% (vol/vol) FBS and 25 ng/ml of macrophage colony-stimulating factor (M-CSF; R&D, Minneapolis, MN). The final densities of differentiated BMDMs were 1 × 10^5 to 3 × 10^5 per well in 48-well plates. Cells were infected for 2 h with M. abscessus at a multiplicity of infection (MOI) of 5. Next cells were washed with PBS and incubated in DMEM containing 50 μg/ml of gentamicin (Sigma-Aldrich). RUFI and clarithromycin (CLR) were added to the media to achieve final concentrations of 5 and 10 μM, respectively, and then the cultures were incubated for 2 days. The supernatant was removed, and cells were lysed in sterile distilled water for 30 min at 37°C. Cell lysates were serially diluted, plated on 7H10 agar, and incubated at 37°C for 2 to 3 days for enumeration of CFU.

M. avium (ATCC 15769) = assay: microbe, parasite or virus in culture; type: cell-based; conditions: Mycobacterium avium, ATCC15769; M. avium; read-out: MIC
M. chelonae (ATCC 35752) = assay: microbe, parasite or virus in culture; type: cell-based, Mycobacterium chelonae; conditions: Mycobacteroides chelonae, ATCC35752; M. chelonae; read-out: MIC

ClpC1, sequence (P9WPC9 whole entry): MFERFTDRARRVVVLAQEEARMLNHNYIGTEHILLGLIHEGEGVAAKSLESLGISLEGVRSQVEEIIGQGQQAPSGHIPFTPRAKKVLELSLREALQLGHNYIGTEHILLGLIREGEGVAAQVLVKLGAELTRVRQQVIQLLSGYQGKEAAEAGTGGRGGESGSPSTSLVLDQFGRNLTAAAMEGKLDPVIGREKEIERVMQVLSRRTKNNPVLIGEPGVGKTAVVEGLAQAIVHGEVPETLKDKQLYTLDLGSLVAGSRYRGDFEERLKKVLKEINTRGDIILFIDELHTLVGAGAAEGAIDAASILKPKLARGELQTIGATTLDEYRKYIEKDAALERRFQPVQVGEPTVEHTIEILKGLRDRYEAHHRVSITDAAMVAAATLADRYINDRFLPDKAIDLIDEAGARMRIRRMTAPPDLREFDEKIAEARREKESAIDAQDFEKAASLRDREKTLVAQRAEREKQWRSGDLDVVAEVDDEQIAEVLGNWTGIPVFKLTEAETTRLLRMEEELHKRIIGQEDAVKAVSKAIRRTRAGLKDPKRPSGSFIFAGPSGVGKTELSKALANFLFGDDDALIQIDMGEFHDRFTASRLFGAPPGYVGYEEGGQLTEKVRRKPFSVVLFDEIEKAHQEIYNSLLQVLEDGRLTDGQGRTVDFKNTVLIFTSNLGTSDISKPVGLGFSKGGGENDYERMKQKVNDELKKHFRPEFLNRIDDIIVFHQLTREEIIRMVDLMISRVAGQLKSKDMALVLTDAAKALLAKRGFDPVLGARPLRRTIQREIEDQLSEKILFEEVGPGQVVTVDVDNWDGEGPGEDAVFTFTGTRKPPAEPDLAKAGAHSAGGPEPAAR
ClpC1/P1/P2 complex, sequence (P9WPC9 whole entry, one chain of several): as the sequence (P9WPC9 whole entry) above

C/C=C/C[C@@H]1NC(=O)[C@H](CC(C)C)N2C(=O)C(C[C@H](C)[C@H]2O)N(C)C(=O)[C@H](C)NC(=O)[C@H](Cc2ccc(O)c([N+](=O)[O-])c2)NC(=O)[C@H](CC(C)C)N(C)C(=O)[C@H](Cc2cn(C(C)(C)C3CO3)c3ccccc23)NC1=O (stereo partly shown) [RUFI, rufomycin I]
IC50 [1]: 14 µM
IC50 [2]: 12 µM
IC50 [3]: 7.7 µM
MIC [4]: > 10 µM
MIC [5]: > 10 µM
MIC [6]: > 10 µM
MIC ([7]; M. abscessus): 0.42 µM (≈ 0.438 µg/mL)
MIC ([7]; Mycobacteroides abscessus, ATCC19977, M. abscessus): 0.4 µM (≈ 0.417 µg/mL)
IC50 [8]: 13 µM
effect on proteolytic activity of ClpC1/P1/P2 (FITC-casein degradation) (ClpC1/P1/P2 complex): significantly decreased the proteolytic capabilities; also recorded: strongly inhibited
effect on ClpC1 ATPase activity (ClpC1): no significant effect; also recorded: mild and insignificant inhibitory effect
MBC (minimum bactericidal concentration) (M. tuberculosis): 0.40 µM (≈ 0.417 µg/mL)
MBC (M. tuberculosis; Mycobacterium tuberculosis, read-out: MBC (minimum bactericidal concentration)): 0.4 µM (≈ 0.417 µg/mL)
MIC (M. bovis (ATCC 35734)): < 0.02 µM
half-life (in vivo; female, BALB/c, mouse, in vivo, iv, plasma, mean n = 3, read-out: terminal half-life (converted)): 1 h
clinical abnormalities (in vivo): no clinical abnormalities observed
activity against M. abscessus in BMDMs (CFU) [9]: as effective as clarithromycin
MIC (M. avium (ATCC 15769)): 1.75 µM (≈ 1.82 µg/mL)
MIC (M. chelonae (ATCC 35752)): 4.24 µM (≈ 4.42 µg/mL)
